In patent US20050026911A1, “Benzotriazapinone salts and methods for using same” (priority 2003, published 2005):

Biological target: T1, gastrin (CCK2) receptors (Rattus norvegicus, UniProt P30553)
T1 construct: The stomach was excised and flushed with ca. 1 ml of unbuffered physiological saline solution; from tissue; host or cells: isolated whole stomach of immature rats (ca. 21 days old)
T1 sequence (P30553 1-452): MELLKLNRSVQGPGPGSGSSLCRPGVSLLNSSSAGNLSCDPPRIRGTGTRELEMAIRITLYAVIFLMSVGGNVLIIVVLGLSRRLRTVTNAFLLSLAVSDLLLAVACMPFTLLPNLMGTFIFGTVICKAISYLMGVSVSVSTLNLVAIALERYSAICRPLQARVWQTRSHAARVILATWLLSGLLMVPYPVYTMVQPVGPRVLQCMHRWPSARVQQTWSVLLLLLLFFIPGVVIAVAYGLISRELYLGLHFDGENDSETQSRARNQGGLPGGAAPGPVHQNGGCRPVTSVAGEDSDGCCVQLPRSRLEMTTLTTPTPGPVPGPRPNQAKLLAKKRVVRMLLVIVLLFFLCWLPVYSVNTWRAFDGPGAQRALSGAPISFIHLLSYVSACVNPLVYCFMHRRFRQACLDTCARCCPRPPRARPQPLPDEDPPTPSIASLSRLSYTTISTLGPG
Assay: gastrin (CCK2) antagonist activity in an immature rat stomach assay
Conditions: pentagastrin dose-response curves, acid secretion, read-out: pKB rat stomach (converted)
Outline: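 Pentagastrin dose-response curves were run cumulatively 60 min after drug went into the serosal bath, itself after 120 min stabilisation. Preparation: perfused stomach from rats ca. 21 days old (33-50 g), with unbuffered saline under 100% O2 at 1 ml min^−1 and perfusate pH monitored.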

Kb [nM]	Structure (SMILES)
3.24	CC(C)(C)C(=O)CN1C(=O)N(CC(=O)Nc2cccc(-c3ccccc3C(=O)O)c2)N=C(C2CCCCC2)c2ccccc21 [Example 154, 3′-{2-[5-Cyclohexyl-1-(3,3-dimethyl-2-oxo-butyl)-2-oxo-1,2-dihydro-3H-1,3,4-benzotriazepin-3-yl]-acetylamino}-biphenyl-2-carboxylic acid]
871	CC(C)(C)C(=O)CN1C(=O)N(CC(=O)Nc2cccc(-n3ccnc3)c2)N=C(C2CCCCC2)c2ccccc21 [Example 89, 2-[5-Cyclohexyl-1-(3,3-dimethyl-2-oxo-butyl)-2-oxo-1,2-dihydro-3H-1,3,4-benzotriazepin-3-yl]-N-[3-(1H-imidazol-1-yl)-phenyl]-acetamide]
6.03	Cc1nc(-c2cccc(NC(=O)CN3N=C(C4CCCCC4)c4ccccc4N(CC(=O)C4CCCC4)C3=O)c2)cs1 [Example 136, 2-[5-Cyclohexyl-1-(2-cyclopentyl-2-oxo-ethyl)-2-oxo-1,2-dihydro-3H-1,3,4-benzotriazepin-3-yl]-N-[3-(2-methyl-thiazol-4-yl)-phenyl]-acetamide]
11.7	CC1(C(=O)CN2C(=O)N(CC(=O)Nc3cccc(C(=O)O)c3)N=C(C3CCCCC3)c3ccccc32)CCCC1 [Example 88, 3-(2-{5-Cyclohexyl-1-[2-(1-methyl-cyclopentyl)-2-oxo-ethyl]-2-oxo-1,2-dihydro-3H-1,3,4-benzotriazepin-3-yl}-acetylamino)-benzoic acid]
